{
  "source": "patent US20220372033A1",
  "about": "“ANTIBACTERIAL COMPOUNDS” (Janssen Sciences Ireland Unlimited Company, priority 2019, published 2022)",
  "key": {"[1]": {"tested_on": "Mitochondrial toxicity (Glu/Gal)", "experiment": "Mitochondrial toxicity (Glu/Gal) assay", "assay_type": "cell-based", "conditions": "for Mitotoxicity Score: Glu/Gal assay, <3 indicates no mitotoxicity alerts", "source_text": "(§1) The compounds of the invention/examples may have advantages associated with in vitro potency, kill kinetics (i.e. bactericidal effect) in vitro, PK properties, food effect, safety/toxicity (including liver toxicity, coagulation, 5-LO oxygenase), metabolic stability, Ames II negativity, MNT negativity, aqueous based solubility (and ability to formulate) and/or cardiovascular effect e.g. on animals (e.g. anesthetized guinea pig). The data below that was generated/calculated may be obtained using standard methods/assays, for instance that are available in the literature or which may be performed by a supplier (e.g. Microsomal Stability Assay—Cyprotex, Mitochondrial toxicity (Glu/Gal) assay—Cyprotex, as well as literature CYP cocktail inhibition assays).\nCompounds of the invention/examples, may therefore have the advantage that: • No in vitro cardiotoxicity is observed (for example either due to the CVS results or due to the Glu/Gal assay results, for instance low mitotoxicity (<3 in the Glu/Gal assay indicates no mitotoxicity alerts); and/or • No reactive metabolite formation is observed (e.g. GSH);"}, "[2]": {"tested_on": "rCaCH", "experiment": "Cardio tox rCaCH", "conditions": "read-out: Cardio tox rCaCH (pIC50) (converted)", "source_text": "as §1"}, "[3]": {"tested_on": "Mycobacterium tuberculosis (Mtb) bacilli, strain H37Ra", "experiment": "Phenotypic assay of O2 consumption rate (OCR), Test 4, Seahorse XFe96, with Compound X", "conditions": "after Compound X 0.9 μM, test compound 10 μM and uncoupler CCCP 1 μM"}, "[4]": {"molecular_target": "hERG(DOF) (Homo sapiens, UniProt Q12809)", "sequence (Q12809 whole entry)": "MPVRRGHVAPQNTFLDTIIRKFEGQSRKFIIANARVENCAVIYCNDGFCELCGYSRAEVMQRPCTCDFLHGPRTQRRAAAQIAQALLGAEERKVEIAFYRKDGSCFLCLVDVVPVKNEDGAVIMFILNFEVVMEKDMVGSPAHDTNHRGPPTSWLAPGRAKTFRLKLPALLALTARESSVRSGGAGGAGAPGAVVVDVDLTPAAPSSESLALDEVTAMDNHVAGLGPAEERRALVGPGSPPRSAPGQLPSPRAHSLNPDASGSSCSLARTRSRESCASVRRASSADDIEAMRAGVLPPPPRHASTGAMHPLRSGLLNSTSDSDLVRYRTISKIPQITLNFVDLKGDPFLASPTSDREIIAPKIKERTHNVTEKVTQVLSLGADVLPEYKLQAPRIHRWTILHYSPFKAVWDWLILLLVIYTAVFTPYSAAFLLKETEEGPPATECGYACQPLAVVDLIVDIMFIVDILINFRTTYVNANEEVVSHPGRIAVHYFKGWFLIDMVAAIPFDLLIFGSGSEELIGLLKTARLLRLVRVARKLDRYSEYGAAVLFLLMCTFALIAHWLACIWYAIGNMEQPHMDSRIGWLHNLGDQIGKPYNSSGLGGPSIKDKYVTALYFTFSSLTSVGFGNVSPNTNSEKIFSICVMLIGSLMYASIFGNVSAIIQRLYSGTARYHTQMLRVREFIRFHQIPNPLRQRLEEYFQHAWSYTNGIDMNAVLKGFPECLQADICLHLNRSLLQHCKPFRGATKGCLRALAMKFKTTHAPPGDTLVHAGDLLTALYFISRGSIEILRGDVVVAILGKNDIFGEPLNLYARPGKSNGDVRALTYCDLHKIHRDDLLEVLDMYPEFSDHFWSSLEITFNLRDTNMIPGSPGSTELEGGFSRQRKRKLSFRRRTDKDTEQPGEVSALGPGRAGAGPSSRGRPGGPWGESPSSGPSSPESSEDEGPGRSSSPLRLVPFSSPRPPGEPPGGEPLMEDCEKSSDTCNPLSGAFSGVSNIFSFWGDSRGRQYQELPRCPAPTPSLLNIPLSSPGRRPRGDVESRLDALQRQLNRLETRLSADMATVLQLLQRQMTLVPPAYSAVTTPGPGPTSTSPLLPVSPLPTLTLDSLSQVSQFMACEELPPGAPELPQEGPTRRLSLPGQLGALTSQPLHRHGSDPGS", "experiment": "Cardio tox hERG(DOF)", "source_text": "as §1"}, "[5]": {"tested_on": "rNaCH", "experiment": "Cardio tox rNaCH", "source_text": "as §1"}, "[6]": {"tested_on": "Mycobacterium tuberculosis strain H37Rv ΔctaE-ΔqcrCAB", "experiment": "microbe, parasite or virus in culture", "assay_type": "cell-based", "conditions": "240 h"}},
  "note": "Where “and” joins values, the source holds several entries; their conditions need not be identical. Equal values may be shown once. Read-outs that look alike come from different tables or passages of the source.",
  "data": [
    {"compound": "Cc1c(-c2ccc3cc(-c4cccc(OC(F)(F)F)c4)nn3c2)[nH]c2ccccc2c1=O", "note": "[Compound 1]", "values": [
      {"measurement": "Mitotoxicity Score", "setting": "[1]", "result": "positive"},
      {"measurement": "IC50", "setting": "[2]", "result": 3.5, "unit": "µM"},
      {"measurement": "melting point", "result": 243.7, "unit": "°C"},
      {"measurement": "(ii) % OCR after cccp", "setting": "[3]", "result": 93.2, "unit": "%"},
      {"measurement": "IC50", "setting": "[4]", "result": 3.98, "unit": "µM"},
      {"measurement": "IC50", "setting": "[5]", "result": 3.02, "unit": "µM"},
      {"measurement": "IC50", "setting": "[6]", "result": 27.8, "unit": "µM"}
    ]},
    {"compound": "Cc1c(-c2ccc3nc(Cc4ccc(OC(F)(F)F)cc4)cn3c2)[nH]c2ccccc2c1=O", "note": "[Compound 2]", "values": [
      {"measurement": "Mitotoxicity Score", "setting": "[1]", "result": "positive"},
      {"measurement": "IC50", "setting": "[2]", "result": "> 10", "unit": "µM"},
      {"measurement": "melting point", "result": 244.8, "unit": "°C"},
      {"measurement": "(ii) % OCR after cccp", "setting": "[3]", "result": 112.0, "unit": "%"},
      {"measurement": "IC50", "setting": "[4]", "result": 1.8, "unit": "µM"},
      {"measurement": "IC50", "setting": "[5]", "result": 2.6, "unit": "µM"},
      {"measurement": "IC50", "setting": "[6]", "result": 91.8, "unit": "µM"}
    ]},
    {"compound": "Cc1c(-c2ccc3cc(-c4cccc(OC(F)(F)F)c4)nn3c2)[nH]c2ccccc2c1=O", "note": "[Compound 8]", "values": [
      {"measurement": "Mitotoxicity Score", "setting": "[1]", "result": "positive"},
      {"measurement": "IC50", "setting": "[1]; galactose medium, read-out: IC50, gal", "result": 10.8, "unit": "µM"},
      {"measurement": "IC50", "setting": "[1]; glucose medium, read-out: IC50, glu", "result": "≥ 200", "unit": "µM"},
      {"measurement": "(ii) % OCR after cccp", "setting": "[3]", "result": 93.125, "unit": "%"}
    ]},
    {"compound": "Cc1c(-c2ccc3nc(-c4cccc(OC(F)(F)F)c4)cn3c2)[nH]c2ccccc2c1=O", "note": "[Compound 5]", "values": [
      {"measurement": "IC50", "setting": "[2]", "result": "> 10", "unit": "µM"},
      {"measurement": "melting point", "result": 229.9, "unit": "°C"},
      {"measurement": "(ii) % OCR after cccp", "setting": "[3]", "result": 159.3, "unit": "%"},
      {"measurement": "IC50", "setting": "[4]", "result": "> 10", "unit": "µM"},
      {"measurement": "IC50", "setting": "[5]", "result": 3.8, "unit": "µM"},
      {"measurement": "IC50", "setting": "[6]", "result": "> 100", "unit": "µM"}
    ]},
    {"compound": "CCc1nc2ccc(-c3[nH]c4ccccc4c(=O)c3C)cn2c1C(=O)NCc1ccc(OC(F)(F)F)cc1", "note": "[Compound 7]", "values": [
      {"measurement": "Mitotoxicity Score", "setting": "[1]", "result": "negative"},
      {"measurement": "(ii) % OCR after cccp", "setting": "[3]", "result": 110.6, "unit": "%"}
    ]},
    {"compound": "Cc1c(-c2ccc3cc(-c4cccc(OC(F)(F)F)c4)cn3c2)[nH]c2ccccc2c1=O", "note": "[Compound 3]", "values": [
      {"measurement": "Mitotoxicity Score", "setting": "[1]", "result": "negative"},
      {"measurement": "IC50", "setting": "[2]", "result": "> 10", "unit": "µM"},
      {"measurement": "melting point", "result": 257.8, "unit": "°C"},
      {"measurement": "(ii) % OCR after cccp", "setting": "[3]", "result": "196.1% and 131.0%"},
      {"measurement": "IC50", "setting": "[4]", "result": "> 10", "unit": "µM"},
      {"measurement": "IC50", "setting": "[5]", "result": 1.9, "unit": "µM"},
      {"measurement": "IC50", "setting": "[6]", "result": "> 100", "unit": "µM"}
    ]},
    {"compound": "Cc1c(-c2ccc3nc(-c4ccccc4)cn3c2)[nH]c2ccccc2c1=O", "note": "[Compound 4]", "values": [
      {"measurement": "melting point", "result": 337.2, "unit": "°C"},
      {"measurement": "(ii) % OCR after cccp", "setting": "[3]", "result": 144.1, "unit": "%"},
      {"measurement": "IC50", "setting": "[6]", "result": "> 100", "unit": "µM"}
    ]}
  ]
}
